Assay results reported in PMC6321168, “Comparative Study on Excretive Characterization of Main Components in Herb Pair Notoginseng-Safflower and Single Herbs by LC–MS/MS” (Pharmaceutics, 2018).

Test: Fecal excretion study in rats after oral NS, SF or CNS (LC–MS/MS)
Type: in vivo
Conditions: rat feces
Experimental: The animal room was set at constant temperature of 20 ± 2 °C with humidity of 50 ± 20% and 12/12 h light/dark cycle.
Eighteen male rats were fasted for 12 h before starting the experiment. The rats were divided into three groups at random (n = 6) and received NS (60 mg/kg), SF (50 mg/kg), and NS (60 mg/kg) + SF (50 mg/kg), respectively, by oral gavage. The rats were placed in separate metabolic cages. The urine samples were collected at 0–2, 2–4, 4–6, 6–8, 8–12, 12–24, 24–36, 36–48, 48–72, 72–96, and 96–120 h. The feces samples were collected at 0–4, 4–8, 8–12, 12–24, 24–36, 36–48, 48–72, 72–96, and 96–120 h. The urine volume was recorded and the dry feces were measured for each collection period. Samples were stored at −80 °C until analysis.
Feces samples were homogenized in ultrapure water (1 g/15 mL), soaked for 30 min, ultrasonically extracted for 30 min and centrifuged at 9000 rpm for 8 min. An aliquot of 200 μL feces water extraction solution was mixed with 10 μL of IS and then extracted three times with water-saturated n-BuOH (150 μL). The upper organic phase was combined and evaporated to dryness using a ZLS-2 vacuum centrifugal concentrator. The residue was treated as the urine sample and a 1-μL aliquot was injected for LC–MS analysis.
Ultra fast liquid chromatography (UFLC) analysis was performed using a Shimadzu UFLC system (DGU-20A3R Degasser; LC-20AD pump; SIL-20AXR Autosampler; CTO-20AC Column Oven) (Nakagyo-Ku, Koyoto, Japan). […] Because of the different endogenous substances in the urine and feces samples, different elution gradients were used to alleviate the matrix effects for the analytes.
The mass spectrometric detection was performed on an ABSciex 4500 Qtrap mass spectrometer (ABSciex, Foster City, CA, USA) equipped with a negative electrospray ionization (ESI) interface using multiple reaction monitoring (MRM). The MS parameters were optimized under the selected ion monitoring conditions as follows: curtain gas, 35 psi; ionspray voltage, 4500 V; turbo gas temperature, 450 °C; GS1, 45 psi; GS2, 45 psi. All data were acquired and analyzed by Analyst software (Versions 1.6.2) from ABSciex.
The accumulative excretion percentage was calculated for each analyte as follows. Excretion at time (t) = [concentration of the analyte (ng/mL) at t] × total urine (or feces) volume (mL) at t. The cumulative excretion up to time t (mg) was expressed as a percent (%) cumulative excretion by dividing by the total amount of the analyte ingested (mg): % Cumulative Excretion = 100 × (Σt excretiont) total ingested.

concentration at 4 h (male, Sprague Dawley, oral CNS 110 mg/kg, 4 h): 87 ± 124 ng/mL | concentration at 8 h (male, Sprague Dawley, oral CNS 110 mg/kg, 8 h): 267 ± 204 ng/mL | concentration at 12 h (male, Sprague Dawley, oral CNS 110 mg/kg, 12 h): 330 ± 26 ng/mL | concentration at 24 h (male, Sprague Dawley, oral CNS 110 mg/kg, 24 h): 366 ± 20 ng/mL | concentration at 36 h (male, Sprague Dawley, oral CNS 110 mg/kg, 36 h): 367 ± 26 ng/mL | concentration at 48 h (male, Sprague Dawley, oral CNS 110 mg/kg, 48 h): 354 ± 28 ng/mL | concentration at 72 h (male, Sprague Dawley, oral CNS 110 mg/kg, 72 h): 168 ± 69 ng/mL | concentration at 96 h (male, Sprague Dawley, oral CNS 110 mg/kg, 96 h): 44 ± 43 ng/mL | concentration at 4 h (male, Sprague Dawley, oral NS 60 mg/kg, 4 h): 323 ± 43 ng/mL | concentration at 8 h (male, Sprague Dawley, oral NS 60 mg/kg, 8 h): 455 ± 18 ng/mL | concentration at 12 h (male, Sprague Dawley, oral NS 60 mg/kg, 12 h): 401 ± 27 ng/mL | concentration at 24 h (male, Sprague Dawley, oral NS 60 mg/kg, 24 h): 430 ± 15 ng/mL | concentration at 36 h (male, Sprague Dawley, oral NS 60 mg/kg, 36 h): 421 ± 18 ng/mL | concentration at 48 h (male, Sprague Dawley, oral NS 60 mg/kg, 48 h): 561 ± 26 ng/mL | concentration at 72 h (male, Sprague Dawley, oral NS 60 mg/kg, 72 h): 81 ± 6 ng/mL | concentration at 96 h (male, Sprague Dawley, oral NS 60 mg/kg, 96 h): 18 ± 1 ng/mL | concentration at 120 h (male, Sprague Dawley, oral NS 60 mg/kg, 120 h): 17 ± 2 ng/mL | Accumulative excretion amount (oral CNS 110 mg/kg, 4 h): 1.098 ± 1.616 µg | Accumulative excretion percentage (oral CNS 110 mg/kg, 4 h): 0.234±0.345% | Excretion amount (oral CNS 110 mg/kg, 4 h): 1.098 ± 1.616 µg | Accumulative excretion amount (oral CNS 110 mg/kg, 8 h): 4.802 ± 4.393 µg | Accumulative excretion percentage (oral CNS 110 mg/kg, 8 h): 1.022±0.936% | Excretion amount (oral CNS 110 mg/kg, 8 h): 3.705 ± 2.813 µg | Accumulative excretion amount (oral CNS 110 mg/kg, 12 h): 9.675 ± 4.726 µg | Accumulative excretion percentage (oral CNS 110 mg/kg, 12 h): 2.051±1.001% | Excretion amount (oral CNS 110 mg/kg, 12 h): 4.873 ± 1.226 µg | Accumulative excretion amount (oral CNS 110 mg/kg, 24 h): 15.135 ± 5.426 µg | Accumulative excretion percentage (oral CNS 110 mg/kg, 24 h): 3.203±1.152% | Excretion amount (oral CNS 110 mg/kg, 24 h): 5.459 ± 1.584 µg | Accumulative excretion amount (oral CNS 110 mg/kg, 36 h): 20.570 ± 6.347 µg | Accumulative excretion percentage (oral CNS 110 mg/kg, 36 h): 4.364±1.343% | Excretion amount (oral CNS 110 mg/kg, 36 h): 5.435 ± 1.413 µg | Accumulative excretion amount (oral CNS 110 mg/kg, 48 h): 25.852 ± 7.369 µg | Accumulative excretion percentage (oral CNS 110 mg/kg, 48 h): 5.469±1.568% | Excretion amount (oral CNS 110 mg/kg, 48 h): 5.282 ± 1.513 µg | Accumulative excretion percentage (oral CNS 110 mg/kg, 72 h): 6.027±1.613% | Excretion amount (oral CNS 110 mg/kg, 72 h): 2.615 ± 1.424 µg | Accumulative excretion amount (oral CNS 110 mg/kg, 96 h): 29.184 ± 7.675 µg | Accumulative excretion percentage (oral CNS 110 mg/kg, 96 h): 6.182±1.623% | Excretion amount (oral CNS 110 mg/kg, 96 h): 0.717 ± 0.713 µg | Accumulative excretion amount (oral CNS 110 mg/kg, 120 h): 29.184 ± 7.675 µg | Accumulative excretion percentage (oral CNS 110 mg/kg, 120 h): 6.182±1.623% | Accumulative excretion amount (oral NS 60 mg/kg, 4 h): 4.585 ± 1.408 µg | Accumulative excretion percentage (oral NS 60 mg/kg, 4 h): 0.852±0.261% | Excretion amount (oral NS 60 mg/kg, 4 h): 4.585 ± 1.408 µg | Accumulative excretion amount (oral NS 60 mg/kg, 8 h): 11.148 ± 3.459 µg | Accumulative excretion percentage (oral NS 60 mg/kg, 8 h): 2.063±0.644% | Excretion amount (oral NS 60 mg/kg, 8 h): 6.563 ± 2.122 µg | Accumulative excretion amount (oral NS 60 mg/kg, 12 h): 16.907 ± 5.229 µg | Accumulative excretion percentage (oral NS 60 mg/kg, 12 h): 3.122±0.971% | Excretion amount (oral NS 60 mg/kg, 12 h): 5.759 ± 1.787 µg | Accumulative excretion amount (oral NS 60 mg/kg, 24 h): 23.057 ± 7.062 µg | Accumulative excretion percentage (oral NS 60 mg/kg, 24 h): 4.266±1.305% | Excretion amount (oral NS 60 mg/kg, 24 h): 6.150 ± 1.850 µg | Accumulative excretion amount (oral NS 60 mg/kg, 36 h): 29.162 ± 9.141 µg | Accumulative excretion percentage (oral NS 60 mg/kg, 36 h): 5.397± 1.699% | Excretion amount (oral NS 60 mg/kg, 36 h): 6.105 ± 2.098 µg | Accumulative excretion amount (oral NS 60 mg/kg, 48 h): 37.268 ± 11.835 µg | Accumulative excretion percentage (oral NS 60 mg/kg, 48 h): 6.892±2.193% | Excretion amount (oral NS 60 mg/kg, 48 h): 8.106 ± 2.700 µg | Accumulative excretion amount (oral NS 60 mg/kg, 72 h): 38.423 ± 12.180 µg | Accumulative excretion percentage (oral NS 60 mg/kg, 72 h): 7.103±2.254% | Excretion amount (oral NS 60 mg/kg, 72 h): 1.155 ± 0.306 µg | Accumulative excretion amount (oral NS 60 mg/kg, 96 h): 38.685 ± 12.265 µg | Accumulative excretion percentage (oral NS 60 mg/kg, 96 h): 7.149±2.268% | Excretion amount (oral NS 60 mg/kg, 96 h): 0.262 ± 0.086 µg | Accumulative excretion amount (oral NS 60 mg/kg, 120 h): 38.937 ± 12.350 µg | Accumulative excretion percentage (oral NS 60 mg/kg, 120 h): 7.187±2.278% | Excretion amount (oral NS 60 mg/kg, 120 h): 0.252 ± 0.091 µg
Compound: CC(C)=CCC[C@](C)(O[C@@H]1O[C@H](CO)[C@@H](O)[C@H](O)[C@H]1O)[C@H]1CC[C@]2(C)[C@@H]1[C@H](O)C[C@@H]1[C@@]3(C)CC[C@H](O)C(C)(C)[C@@H]3[C@@H](O[C@@H]3O[C@H](CO)[C@@H](O)[C@H](O)[C@H]3O[C@@H]3O[C@@H](C)[C@H](O)[C@@H](O)[C@H]3O)C[C@]12C [ginsenoside Re]
